Our source for the IC50 values is patent US8664228B2, “3,5-diamino-6-chloro-pyrazine-2-carboxylic acid derivatives and their use as epithelial sodium channel blockers for the treatment of airway diseases” (Novartis AG, priority 2008, dated 2014).

Structures are written as SMILES. pIC50: −log10 of the molar value. Where a name gives a salt, the structure may show the parent alone.

The target of this assay is T1, epithelial sodium channel (ENaC) (Homo sapiens, UniProt P37088+P51168+P51170).
T1 construct: host or cells: primary human bronchial epithelial cells (HBECs), air-liquid interface culture
T1 sequence (P37088 1-669): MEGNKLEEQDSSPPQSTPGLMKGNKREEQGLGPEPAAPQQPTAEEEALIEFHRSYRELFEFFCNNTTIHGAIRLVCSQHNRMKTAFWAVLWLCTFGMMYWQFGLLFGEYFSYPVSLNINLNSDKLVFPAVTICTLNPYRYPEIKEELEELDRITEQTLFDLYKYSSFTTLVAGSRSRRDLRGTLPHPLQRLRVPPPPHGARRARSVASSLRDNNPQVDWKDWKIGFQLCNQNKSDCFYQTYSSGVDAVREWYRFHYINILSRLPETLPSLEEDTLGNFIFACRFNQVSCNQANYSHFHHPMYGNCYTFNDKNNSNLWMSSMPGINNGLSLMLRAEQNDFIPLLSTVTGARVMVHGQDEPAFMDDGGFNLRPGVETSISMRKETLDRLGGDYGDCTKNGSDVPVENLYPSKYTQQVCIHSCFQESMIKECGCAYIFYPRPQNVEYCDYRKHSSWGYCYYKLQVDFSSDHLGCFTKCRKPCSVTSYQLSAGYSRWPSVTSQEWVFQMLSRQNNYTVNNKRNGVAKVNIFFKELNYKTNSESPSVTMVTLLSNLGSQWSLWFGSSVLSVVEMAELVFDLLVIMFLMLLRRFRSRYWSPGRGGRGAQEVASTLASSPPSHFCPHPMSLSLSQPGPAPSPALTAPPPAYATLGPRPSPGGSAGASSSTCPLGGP
T1 sequence (P51168 1-640): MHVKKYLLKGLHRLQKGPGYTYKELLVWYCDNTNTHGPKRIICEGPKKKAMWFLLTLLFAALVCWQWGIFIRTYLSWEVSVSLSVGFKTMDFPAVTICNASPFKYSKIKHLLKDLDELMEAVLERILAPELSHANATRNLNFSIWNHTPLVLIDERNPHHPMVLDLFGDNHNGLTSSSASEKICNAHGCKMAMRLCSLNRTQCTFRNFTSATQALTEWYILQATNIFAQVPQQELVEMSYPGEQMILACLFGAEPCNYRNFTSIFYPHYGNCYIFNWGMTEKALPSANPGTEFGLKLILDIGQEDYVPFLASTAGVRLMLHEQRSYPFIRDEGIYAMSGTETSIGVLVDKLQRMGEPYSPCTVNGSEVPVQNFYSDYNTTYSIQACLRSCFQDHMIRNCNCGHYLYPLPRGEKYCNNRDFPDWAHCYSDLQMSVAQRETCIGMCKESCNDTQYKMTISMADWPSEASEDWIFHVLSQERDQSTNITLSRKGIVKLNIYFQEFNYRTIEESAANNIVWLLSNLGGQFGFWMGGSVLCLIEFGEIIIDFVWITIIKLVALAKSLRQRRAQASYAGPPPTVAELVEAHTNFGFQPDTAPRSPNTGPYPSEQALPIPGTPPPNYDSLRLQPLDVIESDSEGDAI
T1 sequence (P51170 1-649): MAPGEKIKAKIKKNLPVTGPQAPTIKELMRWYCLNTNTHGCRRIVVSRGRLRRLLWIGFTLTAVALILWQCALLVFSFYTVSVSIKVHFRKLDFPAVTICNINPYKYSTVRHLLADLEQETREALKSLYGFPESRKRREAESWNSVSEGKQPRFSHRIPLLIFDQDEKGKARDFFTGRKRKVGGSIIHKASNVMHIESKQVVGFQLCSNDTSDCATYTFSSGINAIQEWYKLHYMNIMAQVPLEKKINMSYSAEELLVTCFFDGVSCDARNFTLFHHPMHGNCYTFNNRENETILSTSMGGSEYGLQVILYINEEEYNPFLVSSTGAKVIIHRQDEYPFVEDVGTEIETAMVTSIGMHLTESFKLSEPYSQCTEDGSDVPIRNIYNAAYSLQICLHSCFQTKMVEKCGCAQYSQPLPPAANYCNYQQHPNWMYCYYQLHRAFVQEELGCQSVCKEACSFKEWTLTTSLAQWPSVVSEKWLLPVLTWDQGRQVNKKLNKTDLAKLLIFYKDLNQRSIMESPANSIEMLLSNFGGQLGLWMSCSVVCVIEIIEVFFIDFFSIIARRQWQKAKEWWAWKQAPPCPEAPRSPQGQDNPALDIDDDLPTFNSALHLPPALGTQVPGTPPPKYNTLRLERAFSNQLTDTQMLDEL
The experiment in a line: Short circuit current (ISC) measurements in human bronchial epithelial cells, inhibition of amiloride-sensitive ISC. The format is cell-based. The settings on record: Human Bronchial Epithelial cells (HBECs) at air-liquid interface, Ussing chamber, apical addition. The protocol:
Human Bronchial Epithelial cells (HBECs) (Cambrex) were cultured under air-liquid interface conditions to provide a well differentiated mucociliary phenotype.
HBECs were cultured using a modification of the method described by Gray and colleagues (Gray et al., 1996). Cells were seeded in plastic T-162 flasks and were grown in bronchial epithelial cell growth medium (BEGM; Cambrex) supplemented with bovine pituitary extract (52 μg/mL), hydrocortisone (0.5 μg/mL), human recombinant epidermal growth factor (0.5 ng/mL), epinephrine (0.5 μg/mL), transferrin (10 μg/mL), insulin (5 μg/mL), retinoic acid (0.1 μg/mL), triiodothyronine ([…]), gentamycin (50 μg/mL) and amphotericin B (50 ng/mL). Medium was changed every 48 hours until cells were 90% confluent. Cells were then passaged and seeded (8.25×10^5 cells/insert) on polycarbonate Snapwell inserts (Costar) in differentiation media containing 50% DMEM in BEGM with the same supplements as above but without triiodothyronine and a final retinoic acid concentration of 50 nM (all-trans retinoic acid). Cells were maintained submerged for the first 7 days in culture, after which time they were exposed to an apical air interface for the remainder of the culture period. At this time, media was changed to DMEM:F12 media containing 2% v/v Ultroser G for the remainder of culture. Amphotericin B was removed from all media 3 feeds prior to use in the Ussing Chambers. Cells were used between days 7 and 21 after establishment of the apical-air interface. At all stages of culture, cells were maintained at 37° C. in 5% CO2 in an air incubator.
Snapwell inserts were mounted in Vertical Diffusion Chambers (Costar) and were bathed with continuously gassed Ringer solution (5% CO2 in O2; pH 7.4) maintained at 37° C. containing (in mM): 120 NaCl, 25 NaHCO3, 3.3 KH2PO4, 0.8 K2HPO4, 1.2 CaCl2, 1.2 MgCl2, and 10 glucose. The solution osmolarity was between 280 and 300 mOsmol/kg H2O for all physiological salt solutions used. Cells were voltage clamped to 0 mV (model EVC4000; WPI). RT was measured by applying a 1- or 2-mV pulse at 30-s intervals and calculating RT by Ohm's law. Data were recorded using a PowerLab workstation (ADInstruments).
Test compounds were prepared as a 10 mM stock solution in DMSO (95%). Serial 3-fold dilutions were freshly prepared in an appropriate vehicle (distilled H2O or Ringers solution). The initial concentration was added to the apical chamber as a 1000× concentrate in 5 μL, resulting in a final 1× concentration the 5 mL volume of the Ussing chamber. Subsequent additions of compound were added in a 3.3 μL volume of the 1000× serially diluted stock solution. At the completion of the concentration-response experiment, amiloride (10 μM) was added into the apical chamber to enable the total amiloride-sensitive current to be measured. An amiloride control IC50 was established at the start of each experiment.
Results are expressed as the mean % inhibition of the amiloride-sensitive ISC. Concentration-response curves were plotted and IC50 values generated using GraphPad Prism 3.02. Cell inserts were typically run in duplicate and the IC50 calculated on the mean % inhibition data.
As for `CCC[C@H](N)CNC(=O)c1nc(Cl)c(N)nc1N` [Example 4, 3,5-Diamino-6-chloro-pyrazine-2-carboxylic acid ((S)-2-amino-pentyl)-amide hydrochloride], the pIC50 (commonly the negative decadic logarithm of the IC50, by convention in mol/L) is 6.54.
`Nc1nc(N)c(C(=O)NC[C@@H]2CCCN2)nc1Cl` [Example 9, 3,5-Diamino-6-chloro-pyrazine-2-carboxylic acid ((S)-1-pyrrolidin-2-ylmethyl)-amide hydrochloride] showed a pIC50 of 5.56. This pIC50 is 0.98 log units lower than that of the compound before.
As for `Nc1nc(N)c(C(=O)NCC2(N)CCCC2)nc1Cl` [Example 11, 3,5-Diamino-6-chloro-pyrazine-2-carboxylic acid (1-amino-cyclopentylmethyl)-amide hydrochloride], the negative-log IC50 (pIC50) was 5.23.
As for `Nc1nc(N)c(C(=O)NC[C@@H](N)CCCCNC(=O)Cc2ccc(OCc3ccccc3)cc2)nc1Cl` [Example 12, 3,5-Diamino-6-chloro-pyrazine-2-carboxylic acid {(S)-2-amino-6-[2-(4-benzyloxy-phenyl)-acetylamino]-hexyl}-amide trifluororoacetate], the figure is 7.49; as for `Nc1nc(N)c(C(=O)NC[C@@H](N)CCCCNC(=O)CCc2ccc(OCc3ccccc3)cc2)nc1Cl` [Example 21, 3,5-Diamino-6-chloro-pyrazine-2-carboxylic acid {(S)-2-amino-6-[3-(4-benzyloxy-phenyl)-propionylamino]-hexyl}-amide hydrochloride], 7.19.
For `CCC[C@H](CNC(=O)c1nc(Cl)c(N)nc1N)NC(=N)N` [Example 24, 3,5-Diamino-6-chloro-pyrazine-2-carboxylic acid ((R)-2-guanidino-pentyl)-amide trifluoroacetate] the value was 7.35; for `CCC[C@@H](CNC(=O)c1nc(Cl)c(N)nc1N)NCCCc1ccc(OC)cc1` [Example 26, 3,5-Diamino-6-chloro-pyrazine-2-carboxylic acid {(S)-2-[3-(4-methoxy-phenyl)-propylamino]-pentyl}-amide hydrochloride], 7.22; for `N=C(N)N[C@@H](CCCCNC(=O)Cc1ccc(OCc2ccccc2)cc1)CNC(=O)c1nc(Cl)c(N)nc1N` [Example 27, 3,5-Diamino-6-chloro-pyrazine-2-carboxylic acid {(S)-6-[2-(4-benzyloxy-phenyl)-acetylamino]-2-guanidino-hexyl}-amide trifluoroacetate], 6.70.
For `CCC[C@H](CNC(=O)c1nc(Cl)c(N)nc1N)N(CCCc1ccc(OC)cc1)C(=N)N` [Example 29, 3,5-Diamino-6-chloro-pyrazine-2-carboxylic acid ((R)-2-{N-[3-(4-methoxy-phenyl)-propyl]-guanidino}-pentyl)-amide trifluoroacetate] the value was 8.30.
In the case of `CCC[C@@H](CNC(=O)c1nc(Cl)c(N)nc1N)NC(=N)NCCCc1ccc(OC)cc1` [Example 31, 3,5-Diamino-6-chloro-pyrazine-2-carboxylic acid ((S)-2-{N′-[3-(4-methoxy-phenyl)-propyl]-guanidino}-pentyl)-amide], the pIC50 was 7.31. Against the preceding compound, the pIC50 is 0.99 log units lower.
As for `CCC[C@@H](CNC(=O)c1nc(Cl)c(N)nc1N)NC(=N)NCc1ccc(OC)cc1` [Example 32, 3,5-Diamino-6-chloro-pyrazine-2-carboxylic acid {(S)-2-[N′-(4-methoxy-benzyl)-guanidino]-pentyl}-amide], the figure is 8.22.
